Data taken from patent publication US9597360B2, “Method of treatment for pulpitis and/or enhancement for dentinogenesis” (National Center for Geriatrics and Gerontology, priority 2008, dated 2017).

How the values were obtained:
[1] = system: amputated pulp of rat upper incisor; assay: Rat pulp amputated model; type: in vivo
Protocol: After pulpotomy of rat upper incisor, and wash with a saline, 50 ng of MMP3 adsorbed in spongel was applied to the amputated pulp. As a control, 50 ng of MMP3 and 30 nmol NNGH adsorbed in spongel was applied to the amputated pulp. The cavity was temporally sealed with a bonding agent and a photopolymerization type composite resin (Unifil low flow, GC, Tokyo). 24 hours, 72 hours, or 7 days after application, the paraffin sections of the 5 μm thickness were examined morphologically after HE staining or Masson Trichrome staining.
For quantitative analysis of newly formed blood vessels, each 5 frozen sections at 24 hours after treatment both with MMP3 and control PBS from 4 incisors each, total 40 sections were stained with Fluorescein Griffonia (Bandeiraea) Simplicifolia lectin (BS1-lectin) as described above. Three rectangles of a standardized size (0.1 mm^2) were drawn in the upper part of pulp tissue under the amputated site in every five sections from one sample. The lectin-positive area relative to total area (1.5 mm^2) was quantitatively analyzed in a standardized procedure using BZ-II Analyzer (Keyence) software on a Keyence BZ-9000 fluorescence microscope (Keyence, Tokyo, Japan). The data were presented as means±standard deviation at 4 determinations.
To evaluate effect of MMP3 on proliferation, immunohistochemical analysis of Proliferating Cell Nuclear Antigen (PCNA) was performed. Paraffin sections of 24 hours after treatment were deparaffinized and antigen was retrieved by antigen unmasking solution (Vector Laboratories, Burlingame, Calif.) according to the manufacturer's instructions. Endogenous peroxidase activity and nonspecific staining were blocked as described earlier. The sections were incubated with anti-PCNA antibody (Dako) at dilutions of 1:100 in antibody diluent (Dako) overnight at 4° C., and further incubated with a peroxidase-conjugated secondary antibody (ImmPRESS reagent; Vector Laboratories) for 30 min at room temperature. After development by DAB Liquid System (Dako), sections were counterstained with hematoxylin, and photographed on an Olympus Vanox-s microscope (Olympus, Tokyo, Japan). For quantitative analysis of proliferating cells, each 3 paraffin sections at 24 hours after treatment both with MMP3 and control PBS from 4 incisors each were used. Three rectangles of a standardized size (0.1 mm^2) were drawn in the upper part of pulp tissue under the amputated site in every 3 sections. The positive staining cells were counted and quantitatively analyzed. The data were presented as means±standard deviation at 4 determinations.
For quantitative analysis of matrix formation, each 5 paraffin sections at 72 hours after treatment both with MMP3 and control PBS from 4 incisors each, and 5 sections at 7 days after treatment with MMP3, NNGH, and control PBS from 4 incisors each were stained with Masson's trichrome staining. The positive area was quantitatively analyzed in the upper part of pulp tissue under the amputated site, 2 mm in depth from the amputated site, using BZ-II Analyzer software. The data were presented as means±standard deviation at 4 determinations.

HUVEC [2] = assay: Anti-apoptotic effect, staurosporine-induced apoptosis (Annexin V-FITC/Propidium Iodide flow cytometry); type: cell-based, human
Protocol: NNGH was added 30 minutes before adding MMP3. As a control, cells were cultured in EBM-2 without adding any in the presence of staurosporine. Four hours later, HUVEC was detached from the dish and stained with Annexin V-FITC (Roche) and Propidium Iodide (Sigma) in a cell suspension for 15 minutes and measured ratio of necrosis and apoptosis in flow cytometer JSAN (Bay Bioscience, Kobe).

HUVEC [3] = assay: Modified Boyden chamber migration assay; type: cell-based, human
Protocol: Modified Boyden chamber assay was performed at 37° C. with a PET membrane (BD Bioscience, Franklin Lakes, N.J.) of 24 well for 24 hours. In the presence of 10 ng/ml of MMP3, 100 ng/ml of MMP3, 100 ng/ml of MMP3 and 0.13 μmol of NNGH, 50 ng/ml of MMP10, 50 ng/ml of MMP10 and 0.13 μmol of NNGH, 0.13 μmol of NNGH only, or 50 ng/ml of VEGF-A, 5×10^4 cells of HUVEC was cultured in the upper part of the chamber. As a control, a 0.02% bovine serum albumin (Sigma) was used. After incubations, HUVEC which migrated to the lower part of the membrane was detached by trypsin treatment and counted. […] The data represented the mean±SD of 4 samples.

[4] = system: Human umbilical vein endothelial cells (HUVECs); assay: Proliferative effect on endothelial cells (Tetra-color one, 450 nm absorbance); type: cell-based; details: HUVEC
Protocol: Human umbilical vein endothelial cells (HUVECs) (KURABO Industries, Osaka,) were seeded with 1,000 cells per 96 well. […] Ten μl of Tetra-color one (Seikagaku Kogyo, Co., Tokyo, Japan) was added to the 96 well plate, and cell numbers were measured using spectrophotometer at 450 nm absorbance at 2, 12, 24, 36, 48, 60 hours of culture. Wells without cells were served as negative controls.

[5] = system: pulp cells from rat upper incisor; assay: Induction of odontoblast differentiation using pulp cells (Dspp, enamelysin real-time RT-PCR); type: cell-based; details: MMP3 100 ng/ml, 14 days and 21 days
Protocol: Pulp cells were isolated from rat upper incisor by the trypsin and collagenase digestion method and cultured in DMEM (Sigma, St. Louis, Mo., USA) including L-ascorbic acid phosphoric acid magnesium salt (Wako pure medicine) and 10% of […] fetal bovine serum (SAFC Biosciences, Lenexa, Kans., USA) and 100 unit/ml penicillin G, 100 μg/ml streptomycin (Invitrogen, Carlsbad, Calif., USA). MMP3 was added 100 ng/ml of MMP3, or 0.13 μmol of NNGH and 50 ng/ml human recombinant BMP2 to the cells at second passage of culture after confluence. Total RNA was extracted 14 days or 21 days after and analyzed expression of odontoblastic differentiation markers, dentin sialophosphoprotein (Dspp) and enamelysin by Real-time RT-PCR (table 1). […] When MMP3 was added, the differentiation inductive effect into odontoblasts in particular was […] in comparison without adding MMP3 of the control 14 days and 21 days after treatment.

[6] = system: amputated pulp of dog upper premolar teeth; assay: Dog pulpotomy model; type: in vivo; details: 100 ng MMP3 in spongel, 14 days
Protocol: After pulpotomy of dog upper premolar teeth, the amputated pulp was washed with 5% sodium hypochlorite solution and 3% hydrogen peroxide and further was washed with a saline, 100 ng of MMP3 absorbed in spongel was applied on the amputated pulp. Furthermore, the cavity was provisionally filled with phosphate cement and sealed with a chemical polymerization composite resin after application of a bonding agent. The tooth was extracted 14 days after treatment and fixed with 4% paraformaldehyde fixation at 4° C. overnight and decalcified at 4° C. in 10% formic acid for one week. Reparative dentin formation was observed after HE staining under light microscopy in the longitudinal paraffin 5 μm-section.

[7] = system: inflamed pulp (pulpitis) of dog upper premolar tooth; assay: Dog pulpitis model; type: in vivo
Protocol: The inflammation of the pulp was produced be open with cotton for 24 hours after pulpotomy in the dog upper premolar tooth. Subsequently 100 ng of MMP3 absorbed in spongel was applied to the amputated pulp after washing with 5% sodium hypochlorite solution and 3% hydrogen peroxide and further with a saline. Furthermore, the cavity was filled with phosphate cement and temporally sealed with a chemical polymerization composite resin after application with a bonding agent. The tooth was extracted 14 days later, immersed at 4° C. overnight and followed by fixation and decalcification at 4° C. in 10% formic acid for one week. The reparative dentin formation was observed by an light microscope after H.E. staining at 5 μm-paraffin sections. FIG. 11A is a figure of micrograph showing healing of pulpitis state 14 days after MMP3 application in the upper premolar tooth of the dog in which pulpitis had been produced. FIG. 11B is a figure of micrograph of the high power to show healing of pulpitis state 14 days after MMP3 application in the upper premolar tooth of the dog in which pulpitis had been produced. FIG. 11C is a figure of micrograph 14 days in case of the PBS control of the upper premolar tooth of the dog in which pulpitis produces had been produced. FIG. 11D is a figure of micrograph of the high power 14 days in case of the PBS control of the upper premolar tooth of the dog n which pulpitis had been produced.

COc1ccc(S(=O)(=O)N(CC(=O)NO)CC(C)C)cc1 [NNGH, N-Isobutyl-N-(4-methoxyphenylsulfonyl)-glycylhydroxamic acid, reference compound]
dentin matrix formation in comparison with PBS control group ([1]; 7 days after pulpotomy, P<0.01): Significant decrease
anti-apoptotic effect of MMP3 when NNGH added at the same time (HUVEC [2]; 50 ng/ml MMP3 with 0.13 μmol NNGH, staurosporine 100 nM): inhibited
migration effect of MMP3 when NNGH added at the same time (HUVEC [3]; HUVEC, 100 ng/ml MMP3 and 0.13 μmol NNGH): inhibited
proliferative effect of MMP3 when NNGH added at the same time ([4]; MMP3 50 ng/mL with NNGH 0.13 μM): restrained
proliferative effect in comparison with the no addition group of MMP3 ([4]; NNGH added): almost the same

CN[C@@H]1C[C@H]2O[C@@](C)([C@@H]1OC)n1c3ccccc3c3c4c(c5c6ccccc6n2c5c31)C(=O)NC4 [Staurosporine, reference compound]
apoptosis, % of cells (HUVEC [2]; Staurosporine 100 nM alone, four hours): 52%

MMP3: human MMP3 (Chemicon); protein of the MMP family, referred to as stromelysin 1; active ingredient of the medicament
PCNA positively staining cells ([1]; 50 ng MMP3, 24 hours after pulpotomy, pulp under the amputated site): 98.5 cells/mm^2
increase of the vascularization density versus PBS group ([1]; 50 ng MMP3, 24 hours, BS1-lectin positive area): double
newly formed blood vessels stained with BS1-lectin under the amputated surface, in comparison with MMP3 free group ([1]; 50 ng MMP3 in spongel, 24 hours after pulpotomy): more detected
PCNA positively staining cells, increase versus non applied group ([1]; 24 hours after pulpotomy): 2.7 times
osteodentin formation around newly differentiated odontoblasts/osteodentinoblasts (Masson's Trichrome staining) ([1]; 72 hours after application): observed
DSPP mRNA expression in newly differentiated odontoblasts/osteodentinoblasts (in situ hybridization) ([1]; 72 hours after pulpotomy): seen
amount of osteodentin in comparison with non applied MMP3 (HE staining) ([1]; 72 hours after pulpotomy): larger amount
inflammatory cell infiltration (HE staining) ([1]; 72 hours after pulpotomy): not observed
dentin matrix formation under the amputated site, increase in comparison with PBS control group ([1]; 72 hours after pulpotomy, P<0.01): 3.8 times
apoptotic cells (HUVEC [2]; MMP3 50 ng/ml added at the same time of Staurosporine 100 nM, four hours): 20%
migration promotion effect on HUVEC in comparison with control (HUVEC [3]; 10 ng/ml, 24 hours): significant difference was not detected
migration of HUVEC, increase compared with the control (HUVEC [3]; 100 ng/ml, 24 hours, control 0.02% bovine serum albumin): approximately 3.5 times
increase of proliferation, 48-hour application in comparison with 2-hour application ([4]; MMP3 50 ng/mL): approximately 10 times
differentiation inductive effect into odontoblasts (Dspp, enamelysin mRNA) in comparison with control without MMP3 [5]: not seen
cell proliferation in the vicinity of the amputated surface [6]: a large number
reparative dentin formation in the upper part of the amputated pulp [6]: a large quantity
proliferation under the amputated pulp ([7]; 100 ng MMP3, 14 days): seen
reparative dentin formation ([7]; 100 ng MMP3, 14 days): sometimes observed
vascularization ([7]; 100 ng MMP3, 14 days): enhanced
inflammation state of the pulp ([7]; 100 ng MMP3 in spongel, 14 days): very slight

MMP10/Stromelysin-2: MMP-10 (R&D Systems); an isomer of MMP3
anti-apoptotic effect (HUVEC [2]; 50 ng/ml of MMP10, staurosporine 100 nM): did not have
migration effect (HUVEC [3]; HUVEC, 50 ng/ml of MMP10): did not have
proliferative effect ([4]; MMP-10 50 ng/mL): did not have
